Test results: PMC9115112, “A2B adenosine receptor antagonists rescue lymphocyte activity in adenosine-producing patient-derived cancer models” (Journal for Immunotherapy of Cancer, 2022)

What was measured:
hA2B (A2BAR) = target: T1, hA2B (A2BAR) (Homo sapiens, UniProt P29275); test: cAMP assay, NECA-stimulated, HEK-293 cells with transfected A2BAR; type: cell-based; settings: n=3, read-out: Kb hA2B (cAMP production)
T1 construct: expressed in transfected cells; host or cells: HEK-293
T1 sequence (P29275 1-332): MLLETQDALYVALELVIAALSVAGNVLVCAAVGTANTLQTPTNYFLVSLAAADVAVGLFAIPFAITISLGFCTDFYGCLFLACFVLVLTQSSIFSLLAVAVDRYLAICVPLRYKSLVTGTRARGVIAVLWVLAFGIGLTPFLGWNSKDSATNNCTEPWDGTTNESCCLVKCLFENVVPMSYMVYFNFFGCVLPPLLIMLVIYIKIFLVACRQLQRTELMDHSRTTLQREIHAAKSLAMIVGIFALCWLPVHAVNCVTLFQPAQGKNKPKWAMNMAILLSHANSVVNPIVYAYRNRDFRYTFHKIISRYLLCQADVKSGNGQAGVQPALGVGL
Protocol: Assays were performed in transfected A2BAR using a cyclic AMP (cAMP) enzyme immunoassay kit (Amersham Biosciences) following previously described protocols.[28 30] HEK-293 cells were seeded (10,000 cells/well) in 96-well culture plates and incubated at 37°C in an atmosphere with 5% CO2 in Eagle’s Medium Nutrient Mixture F-12 (EMEM F-12), containing 10% fetal calf serum (FCS) and 1% L-Glutamine. Cells were washed three times with 200 µL assay medium (EMEM-F12 and 25 mM HEPES pH=7.4) and pre-incubated with assay medium containing 30 µM rolipram and test compounds at 37°C for 15 min. Ten µM NECA was incubated for 15 min at 37°C (total incubation time 30 min). Reaction was stopped with lysis buffer supplied in the kit and the enzyme immunoassay was carried out for detection of intracellular cAMP at 450 nm in an Ultra Evolution detector (Tecan). The dose-response curve of NECA-elicited cAMP formation was used to determine the initial choice of A2BAR antagonist concentration (online supplemental figure 2).

[1] = tested on: healthy donor T cells (PBMCs) and NK cells; test: CFSE proliferation assay with exogenous adenosine; type: cell-based, human; settings: exogenous adenosine 0.1 mM, antagonist 12 µM, 3 days (T) and 6 days (NK)
Protocol: Freshly isolated PBMCs and NK cells were stained with 5 µM FITC-conjugated carboxyfluorescein succinimidyl ester (CFSE, BioLegend) in phosphate-buffered saline (PBS) (Life Technologies) at room temperature for 5 min. CSFE stained cells were washed with flow cytometer buffer three times. CSFE-labeled healthy PBMCs and NK cells were cultured in 96-well plates with X-VIVO20% and 1% PS for 3 and 6 days, respectively. Healthy PBMCs were incubated with Human T-activator CD3/CD28 beads at 1:4 ratio (Thermo Fisher Scientific) and IL-2 (Novartis) at 100 IU/mL. Healthy donor NK cells were incubated with 1000 IU/mL IL-2 only. 2×10^5 PBMCs and 5×10^4 NK cells were counted for treatment with ADO (Sigma-Aldrich) and 12 μM of A2BAR antagonist at the same day.
Figure 3 Rescue of lymphocyte proliferation by of A2BAR antagonism. Relative proliferation of: (A) CD45RA- CD4 T cells, (B) CD45RA+ CD4 T cells, (C) CD45RA- CD8 T cells, (D) CD45RA+ CD8 T cells, and (E) NK cells, after incubation with exogenous adenosine 0.1 mM and A2BAR antagonist 12 µM for 3 (A–D) and 6 (E) days. (n=10 healthy donors) CD45RA expression differentiates naïve and effector T cells from central and effector memory T cells. Box plots with minimum, first quartile, median, third quartile, and maximum are presented. Unpaired and non-parametric statistical analysis—Mann-Whitney test was performed against untreated control with *p<0.05, **p<0.01, ***p<0.001, and ****p<0.0001. (F–J) Representative CFSE histogram on the corresponding lymphocyte subset. CFSE, carboxyfluorescein succinimidyl ester.

[2] = tested on: pAMPK in CD4 and CD8 T cells; test: Extracellular ADO uptake assay via pAMPK staining; type: cell-based, human; settings: antagonist 12 µM, 50 µM exogenous adenosine, n=7 healthy donors
Protocol: Experimental setup was adopted from a previous study whereby AR antagonist was added to pretreat cells before exogenous adenosine treatment for intracellular and cytokine staining.[37] In brief, PBMCs were treated with 12 µM of A2BAR antagonists for 90 min before the addition of 50 µM of adenosine for 2 hours. Cells were harvested after 3 hours of CD3/CD28 bead stimulation before intracellular staining with phosphor-AMPK (Thr183, Thr172) rabbit primary antibody (Thermo Fisher Scientific) and antirabbit secondary antibody (BD biosciences).
(§1) Figure 4 Rescue of lymphocyte proinflammatory cytokine production IFNy and perforin by A2BAR antagonism. (A,B) Inhibition of extracellular adenosine uptake via phosphorylated-AMP activated protein kinase (pAMPK) staining (n=7 healthy donors). Production of proinflammatory cytokines—(C,D) IFNy and (E) perforin in CD4 (n=5 healthy donors) and CD8 (n=6 healthy donors) T cells. Expression of CD69 adhesion molecule in (F). CD4 (n=7 healthy donors) and (G) CD8 (n=4 healthy donors) T cells. A2BAR antagonist 12 µM was added. Outlier is presented as diamond shape and defined by Tukey’s rule, which is not included in statistical analysis. Box plots with minimum, first quartile, median, third quartile, and maximum are presented. Normalized fold change is based on percent values compared with untreated controls. Unpaired and non-parametric statistical analysis—Mann-Whitney test was performed against untreated control with *p<0.05, **p<0.01, ***p<0.001, and ****p<0.0001.

[3] = tested on: healthy donor T cells in MPNST patient-derived sarcoma spheroid; test: Proliferation assay with CD73-expressing patient-derived sarcoma (MPNST) spheroid; type: cell-based, human; settings: antagonist 12 µM, 3 days, endogenous adenosine, n=5 healthy donors
Protocol: A malignant peripheral nerve sheath tumor (MPNST) patient-derived sarcoma cell line was used to grow spheroid by seeding 1×10^4 cells per well in a 96-well ultra-low attachment plate (Thermo Fisher Scientific) with DMEM-F12 media containing 20% FBS and 1% PS for 5 days. 1×10^5 CSFE-labeled healthy PBMCs, ratio of 10:1, were added to the CD73 expressing, adenosine-producing spheroid at day five. Similar to the proliferation assay with exogenous ADO, CD3/CD28 beads at 1:4 ratio and IL-2 at 100 IU/mL were added. A2BAR antagonism treatment at 12 μM was added at the same day.
Figure 5 Rescue of lymphocyte proliferation in sarcoma spheroids by A2BAR antagonism. Relative proliferation of: (A) CD45RA- CD4 T cells, (B) CD45RA+CD4 T cells, (C) CD45RA- CD8 T cells and (D) CD45RA+ CD8 T cells after antagonist 12 µM treatment for 3 days in MPNST patient-derived sarcoma spheroid. (n=5 healthy donors) Box plots with minimum, first quartile, median, third quartile, and maximum are presented. Unpaired and non-parametric statistical analysis—Mann-Whitney test was performed against untreated control with *p<0.05, **p<0.01, ***p<0.001, and ****p<0.0001. (E) Representative CSFE dilution of CD45RA+ CD8 T cells. CD45RA expression differentiates naïve and effector T cells from central and effector memory T cells. MPNST, malignant peripheral nerve sheath tumors; UPS, undifferentiated pleomorphic sarcoma.

[4] = tested on: autologous TILs and patient-derived sarcoma spheroids; test: Spheroid infiltration by autologous TILs (real-time imaging and flow cytometry); type: cell-based, human; settings: antagonist 12 µM, 3 days, n=8 donors, not statistically significant
Protocol: Spheroids were prepared using patient-derived sarcoma cell lines. 1×10^4 cells were seeded per well in 96-well ultra-low attachment plate with DMEM-F12 media containing 20% FBS and 1% PS for 5 days. 3×10^4 CSFE-labeled autologous expanded TILs, at Effector:target ratio of 3:1, were added to the spheroid at day five with A2BAR antagonism treatment at 12 µM. After 3 days, spheroid was removed and split into two groups—IN and OUT. […] Spheroids were washed with PBS at least two times. GentleMACS tumor dissociation kit (Miltenyi Biotec) was used to digest the spheroids for FC analysis.
Brightfield and phase contrast images under 4X objective were acquired every 6 hours on IncuCyte S3 system (Essen BioScience). For breast cancer patient-derived spheroid culture, 1×10^4 cells per well were seeded with A2BAR antagonist at 12 µM treatment for 6 days real time imaging. For spheroid infiltration, after the addition of CSFE-labeled autologous expanded TILs and treatment with A2BAR antagonist at 12 µM, green fluorescence images were acquired for 3 days. All spheroid invasion analysis was performed using top hat segmentation with IncuCyte software.
Cell surface was stained with mouse monoclonal antihuman antibodies against CD3, CD4, CD8, CD45RA, CD56 and CD19 listed in online supplemental table 1. Cell surface antibodies and live/dead (L/D) marker were incubated with samples at 4°C for 20 min after washing two times with flow cytometry buffer containing 5% FBS in PBS. For spheroid infiltrated TIL phenotyping, digested IN and OUT spheroids were stained with cell surface marker and analyzed on NovoCyte (ACEA Bioscience) with the use of FlowJo software (Tree Star) by gating single cell based on forward and side scatters. A representative gating strategy for CD8 naïve T cells is shown in online supplemental figure 3A. Compensated flow cytometry standard (FCS) files with only live cells were concatenated for downstream tSNE analysis using the ‘cytofkit’ R package (https://github.com/JinmiaoChenLab/cytofkit).
Figure 6 Infiltration of TILs into autologous patient-derived sarcoma spheroids after A2BAR antagonist treatment. (A) Representative real-time imaging of spheroid TIL infiltration over 3 days under 4× objective. Green areas demarcate CFSE-labeled TILs infiltrated into the red boundary tumor spheroid. (B) Relative TIL infiltration into autologous spheroids (n=8 donors) measured by flow cytometer. Antagonist 12 µM was added with CSFE-labeled TILs after spheroid formation on day five. (C) Representative flow cytometry plot of CFSE positive TILs in CD73+ tumor spheroid. (D) tSNE analysis and (E) annotated pie chart of TILs within (IN) and outside of (OUT) the spheroids without treatment (n=8 donors, indicated within the pie chart). Wilcoxon Rank Sum test was performed to compare the various IN vs OUT adhesion markers. Expression of (F) CD3 T cells, (G) CD49a+ CD103+ among CD8 T cells and (H) CD69 MFI among CD4 T cells IN and OUT of the spheroids without treatment (n=8 donors). (I) Relative CD8/CD4 TIL ratio IN the spheroids. Differential expression of relative (J–L). CD49a+ CD103+ cells IN the spheroids (n=8 donors) of CD3, CD8, and CD4 TILs. Antagonist 12 µM was added for J–L. Outlier is presented as diamond shape and defined by Tukey’s rule, which is not included in statistical analysis. Box plots with minimum, first quartile, median, third quartile, and maximum are presented. Unpaired and non-parametric statistical analysis—Mann-Whitney test was performed against untreated control with *p<0.05, **p<0.01, ***p<0.001, and ****p<0.0001. CFSE, carboxyfluorescein succinimidyl ester; TIL, tumor infiltrating lymphocyte; tSNE, T-distributed stochastic neighboring embedding. TEXT PRINTED IN THE PICTURE: (C) ISAM-R56A: TILs 13.0 DOUBTS OF THE COPYIST ABOUT THIS PICTURE: Panel C, ISAM-R56A, TILs: the print is small, 13.0 could be 13.8 or 13.6 / Panel C also prints a gate label 'TILs 3.17' for the Untreated control. […]

[5] = tested on: CD4 and CD8 T cells (healthy donor PBMCs); test: IFNy and perforin cytokine production assay, with CD69 expression (flow cytometry); type: cell-based, human; settings: antagonist 12 µM, exogenous adenosine
Protocol: Similar experimental setup was performed as the extracellular ADO uptake assay. Cells were harvested after 2 days of CD3/CD28 bead stimulation before treatment with PMA/ionomycin (Sigma Aldrich) and golgi-inhibitors (BD biosciences). After 3 hours of subsequent incubation, intracellular staining was performed for IFNy and perforin (online supplemental table 1).
as §1

Kb (hA2B (A2BAR)) [nM]	SMILES	Rescue of lymphocyte (T and NK cell) proliferation [1]	pAMPK (extracellular ADO uptake) in CD4 T cells [2]	Rescue of naïve and effector (CD45RA+) CD8 T cell proliferation in adenosine-producing sarcoma spheroids [3]	Median increased TIL infiltration vs untreated [4] [%]	IFNy production by T cells on adenosine suppression (subset not given) [5]	Perforin production by CD8 T cells on adenosine suppression [5]
25.2	CCOC(=O)C1=C(C)NC(=O)NC1c1ccsc1 (stereo not shown) [SY1AF-80]	None of the other A2BAR antagonists (SY1AF–30, SY1AF–80 and SY1KO–24) had any measurable impact	significantly inhibited ADO uptake	significantly rescued			
	Cc1cc(-c2nnc(N)nc2-c2ccc(F)cc2)cc(Cl)n1 [AZD-4635, reference compound]	did not restore the proliferation			20		
116	CC1=C(C(=O)OC(C)C)C(c2ccco2)NC(=NC#N)N1 (stereo not shown) [SY1KO-24]	None of the other A2BAR antagonists (SY1AF–30, SY1AF–80 and SY1KO–24) had any measurable impact					
4.72	CC1=C(C(=O)OC(C)C)C(c2ccco2)NC(=S)N1 (stereo not shown) [SY1AF-30]	None of the other A2BAR antagonists (SY1AF–30, SY1AF–80 and SY1KO–24) had any measurable impact		significantly rescued		significantly improved	significantly improved
